Results published in US20200255828A1, “METHODS AND COMPOSITIONS FOR ALTERING FUNCTION AND STRUCTURE OF CHROMATIN LOOPS AND/OR DOMAINS” (THE BROAD INSTITUTE, INC., priority 2017, published 2020).

Experiments:
HCT-116 RAD21-mAC cells [1] = assay: In situ Hi-C: APA for cohesin-independent links between superenhancers; assay type: cell-based, human
From the text: Applicants first annotated loops in our maps for auxin-treated RAD21-mAC cells using default HiCCUPS parameters for 5, 10, and 25 kb resolutions (Durand et al., 2016b; Rao et al., 2014) with the additional requirement that the peak pixel show […] 4.5-fold enrichment over local expected (in order to remove as many false positives as possible due to rearrangements and assembly issues, see above). Using this procedure, Applicants annotated 81 loops in treated RAD21-mAC cells. […] The false discovery rate for HiCCUPS is much higher in treated cells because the number of true positives is dramatically lower. […] Applicants also noticed that the anchors involved in these 15 loops were often forming long-range loops at distances of tens of megabases and hundreds of megabases. Applicants reasoned that HiCCUPS using default parameters for loop detection was missing many of these extremely long-range loops because of the extra stringency of the HiCCUPS lambda chunking procedure for multiple hypothesis testing for pixels with low counts (i.e. pixels far off the diagonal).
More specifically, Applicants annotated loops by running HiCCUPS at 50 and 100 kb resolutions with the following parameters: p=2,1; w=4,2; fdr=10%, 10%. Applicants additionally filtered loops that were within 5 Mb of the diagonal, had less than a 2-fold observed/expected for any of the local expected, and had fewer than 3 pixels clustered into the peak pixels (see section VI.a.5 of Rao et al., 2014). This annotation yielded 88 loops. […] Combining these 46 loops with the 15 loops annotated with high resolution HiCCUPS, Applicants obtained a final curated list of 61 intrachromosomal cohesin-independent loops.
To annotate these interchromosomal links between pairs of cohesin-independent loop anchors, Applicants used HiCCUPS to calculate local enrichments at 100 kb resolution for all possible interchromosomal pairs of cohesin-independent loop anchors. Applicants then identified enriched focal interchromosomal interactions by filtering for links that were enriched at least 5.5-fold over local background (empirically chosen to ensure a <10% false discovery rate). Using this procedure, Applicants identified 203 interchromosomal cohesin-independent links. This likely underestimates the true number of interchromosomal cohesin-independent links, as evidenced by FIG. SA.
Applicants analyzed the change in strength of cohesin-independent links after auxin treatment by using APA at 100 kb resolution.
Applicants also analyzed induction of cohesin-independent links across an auxin treatment and withdrawal time course. This analysis was performed as above with the cohesin-associated loops and loop domains, but at 100 kb resolution instead of 10 kb resolution and for both our 61 intrachromosomal links and our 203 interchromosomal links. […] Similar results were seen upon performing the time course APA at 100 kb resolution using all intrachromosomal pairs of the 47 superenhancer overlapping anchors in the 88-loop automated list from above (FIG. 11E).

HCT-116 RAD21-mAC cells [2] = assay: PRO-Seq nascent transcription after cohesin loss; assay type: cell-based, human
From the text: Finally, Applicants sought to investigate the role of cohesin in regulating gene expression. Cohesin has been proposed to facilitate interactions between enhancers and promoters (Kagey et al., 2010; Merkenschlager and Nora, 2016). Loop domains are thought to regulate this process by preventing enhancers from forming ectopic interactions with targets that lie in a different loop domain (Lupiáñez et al., 2015; Flavahan et al., 2016). Applicants therefore characterized the effects of cohesin loss on nascent transcription by performing precision nuclear run-on sequencing (PRO-Seq) in treated and untreated HCT116 cells (Engreitz et al., 2016; Jonkers and Lis, 2015) (FIG. 7A). Applicants chose an early timepoint—6 hours after auxin treatment—with the aim of examining direct consequences, rather than indirect effects due to changes in cell state.
To measure changes in transcription resulting from cohesin loss, Applicants performed precision run-on sequencing (PRO-Seq) (Jonkers and Lis, 2015), a variant of global run-on sequencing (GRO-Seq), using a single biotinylated nucleotide (biotin-11-CTP) as previously described (Engreitz et al., 2016). Applicants made one modifications to the protocol: at the end of each biotin enrichment, Applicants eluted biotinylated RNAs from the streptavidin-coated magnetic beads by heating beads in 25 μl of 20 mM Tris-HCl pH 7.5, 10 mM EDTA, 2% N-lauroylsarcosine at 95° C. for 5 minutes, followed by a magnetic-bead nucleic acid purification with 20 μl of MyONE SILANE beads. During the nuclei preparation step, Applicants processed pairs of RAD21-mAC cells with and without auxin treatment in parallel. In addition, Applicants performed PRO-Seq on HCT-116 CMV-OsTIR1 cells, the parental cell line of RAD21-mAC containing the OsTIR1 gene integrated at the AAVS1 locus and no mAID tags integrated on any protein. By performing PRO-Seq on CMV-OsTIR1 cells with and without auxin treatment, Applicants could control for transcriptional effects of the auxin treatment itself on HCT-116 cells, as well as any consequences of tagging the RAD21 protein.
For analysis of PRO-Seq data, Applicants aligned 30-bp paired-end reads to the hg19 reference (bowtie2 v2.1.0, (Langmead and Salzberg, 2012)), removed duplicate reads (Picard picard.sourceforge.net), and discarded reads with MAPQ <30. Applicants counted reads overlapping RefSeq genes (collapsed by gene symbol to the longest isoform)—this quantification procedure includes signal both at the paused position (near the TSS) as well as in the gene body. Applicants identified genes showing significant differences in transcription with DESeq2 (Love et al., 2014), excluding genes with zero coverage in all samples and calling significance at Benjamini-Hochberg corrected p-value <0.05.
To determine whether there were global changes in the total amount of transcription (up or down) that would affect the normalization and analysis of these experiments, Applicants included a spike-in control in three of the four PRO-Seq replicates for each of untreated and treated RAD21-mAC and CMV-OsTIR1 cells. Specifically, Applicants added ˜500,000 Drosophila S2 cells at the beginning of the protocol. Upon sequencing of these libraries, Applicants counted the number of spike-in reads by aligning to the Drosophila genome (dme13) with bowtie2 v2.1.0.
Assessment of changes in transcription after cohesin loss. […]

**Q.** O=C(O)Cc1c[nH]c2ccccc12 [auxin, indole-3-acetic acid] was tested. Which “strengthening of cohesin-independent links after auxin treatment” value (HCT-116 RAD21-mAC cells [1]; APA at 100 kb resolution, intra and interchromosomal) did it give?
**A.** ~2 fold

**Q.** What about the “intrachromosomal APA score of cohesin-independent links, treated” value (HCT-116 RAD21-mAC cells [1]; automatedly generated list, untreated 1.69) of the same compound?
**A.** 2.75

**Q.** And the “interchromosomal APA score of cohesin-independent links, treated” value (HCT-116 RAD21-mAC cells [1]; automatedly generated list, untreated 2.29)?
**A.** 3.64

**Q.** What about the “intrachromosomal APA score of cohesin-independent links, treated” value (HCT-116 RAD21-mAC cells [1]; manually curated list of 61 links, untreated 2.32) of the same compound?
**A.** 4.02

**Q.** What about the “interchromosomal APA score of cohesin-independent links, treated” value (HCT-116 RAD21-mAC cells [1]; manually curated list of 203 links, untreated 3.02) of the same compound?
**A.** 7.02

**Q.** What about the AKAP12 expression down-regulation (HCT-116 RAD21-mAC cells [2]; upon auxin treatment) of the same compound?
**A.** 3.3 fold

**Q.** And the IER5L expression down-regulation (HCT-116 RAD21-mAC cells [2]; upon auxin treatment)?
**A.** 2.6 fold

**Q.** What about the KITLG expression down-regulation (HCT-116 RAD21-mAC cells [2]; upon auxin treatment) of the same compound?
**A.** 2.73 fold

**Q.** And the “number of genes 2-fold downregulated with p<0.05 after auxin treatment” value (HCT-116 RAD21-mAC cells [2]; vs untreated HCT-116-CMV-OsTIR1 control)?
**A.** 43

**Q.** What about the “number of genes 1.75-fold downregulated with p<0.05 after auxin treatment” value (HCT-116 RAD21-mAC cells [2]; vs untreated RAD21-mAC cells) of the same compound?
**A.** 49
